Reference: publication PMC12529750 (Emerging Microbes & Infections, 2025)

Columns and labels:
Type in all cases: cell-based
[1] = system: SARS-CoV-2 L50F+E166V variant
[2] = system: SARS-CoV-2 ENS-EV1 (M49L and S144A in Mpro)
SARS-CoV-2 E166H variant = system: SARS-CoV-2 E166H variant
SARS-CoV-2 E166Q variant = system: SARS-CoV-2 E166Q variant
[3] = system: SARS-CoV-2 M49L+S144A+T169I variant
[4] = system: SARS-CoV-2 M49L+S144A variant
SARS-CoV-2 T169I variant = system: SARS-CoV-2 T169I variant
[5] = system: SARS-CoV-2 ENS-EV2 (M49L, S144A and T169I in Mpro)
[6] = system: SARS-CoV-2 replicon with M49L + S144A + T169I
SARS-CoV-2 E166S variant = system: SARS-CoV-2 E166S variant
[7] = system: SARS-CoV-2 M49L+E166A variant
SARS-CoV-2 S144A variant = system: SARS-CoV-2 S144A variant
[8] = system: SARS-CoV-2 NIR-EV L50F+E166V
SARS-CoV-2 M49L variant = system: SARS-CoV-2 M49L variant
[9] = system: SARS-CoV-2 replicon with M49L + E166A
SARS-CoV-2 E166G variant = system: SARS-CoV-2 E166G variant
SARS-CoV-2 E166L variant = system: SARS-CoV-2 E166L variant
[10] = system: SARS-CoV-2 replicon with E166A

Structure (SMILES)	Fold resistance, highest in VeroE6 or A549-hACE2 cells [1]	Fold resistance, highest in VeroE6 or A549-hACE2 cells [2]	Fold resistance, highest in VeroE6 or A549-hACE2 cells (SARS-CoV-2 E166H variant) [fold]	Fold resistance, highest in VeroE6 or A549-hACE2 cells (SARS-CoV-2 E166Q variant) [fold]	Fold resistance, highest in VeroE6 or A549-hACE2 cells [3]	Fold resistance, highest in VeroE6 or A549-hACE2 cells [4]	Fold resistance, highest in VeroE6 or A549-hACE2 cells (SARS-CoV-2 T169I variant)	Fold resistance, highest in VeroE6 or A549-hACE2 cells [5]	Resistance of replicon (% RLU in treated cultures) [6]	Fold resistance, highest in VeroE6 or A549-hACE2 cells (SARS-CoV-2 E166S variant) [fold]	Fold resistance, highest in VeroE6 or A549-hACE2 cells [7]	Fold resistance, highest in VeroE6 or A549-hACE2 cells (SARS-CoV-2 S144A variant)	Fold resistance, highest in VeroE6 or A549-hACE2 cells [8]	Fold resistance, highest in VeroE6 or A549-hACE2 cells (SARS-CoV-2 M49L variant)	Resistance of replicon (% RLU in treated cultures) [9]	Fold resistance, highest in VeroE6 or A549-hACE2 cells (SARS-CoV-2 E166G variant) [fold]	Fold resistance, highest in VeroE6 or A549-hACE2 cells (SARS-CoV-2 E166L variant) [fold]	Resistance of replicon (% RLU in treated cultures) [10]
Cn1cnc(Cn2c(=O)[nH]/c(=N\c3cc4cn(C)nc4cc3Cl)n(Cc3cc(F)c(F)cc3F)c2=O)n1 [ENS, Ensitrelvir]	up to 14 fold	up to 110 fold	> 5	< 5	up to 660 fold	up to 290 fold	up to 4.8 fold	up to 280 fold	highest resistance	> 5	up to 180 fold	up to 21 fold	up to 36 fold	up to 71 fold	lower resistance	< 5	–	–
CC(C)(C)[C@H](NC(=O)C(F)(F)F)C(=O)N1C[C@H]2[C@@H]([C@H]1C(=O)N[C@H](C#N)C[C@@H]1CCNC1=O)C2(C)C [NIR, Nirmatrelvir]	–	< 10 fold	–	< 5	–	–	–	< 10 fold	–	> 5	–	–	–	–	relatively high resistance	< 5	> 5	relatively high resistance
